Test results taken from patent publication US11845724B2, “USP30 inhibitors and uses thereof” (Vincere Biosciences, Inc., priority 2019, dated 2023).
Where two headings read alike, the source gives them in different places.

Assays:
USP30 [1] = biological target: T1, USP30 (Homo sapiens (Human), UniProt Q70CQ3); experiment: Dundee MALDI-TOF mass spectrometry assay (% DUB activity remaining at 1 μM); type: biochemical; details: % DUB activity remaining at compound concentration of 1 μM; avg; read-out: Dundee % Activity at 1 μM (avg in vitro MS assay)
Method: Compounds were tested in a MALDI-TOF assay based on the paper by Ritorto et al. (Ritorto et al. Screening of DUB activity and specificity by MALDI-TOF mass spectrometry. Nat. Commun. 5:4763).
USP30 (25 ng/μl) tested against K48-linked diubiquitin (5.6 μM). USP30 was diluted in a buffer containing 40 mM Tris, 0.01% BSA, 1 mM DTT and K48 in 40 mM Tris, 0.01% BSA.
The compounds were pre-incubated with the USP30 for 5 mins at room temp before the K48 dimer addition. The assay mixture was then incubated for 45 mins at room temp. The assay was stopped by the addition of TFA to a final concentration of 2% (v/v).
Acidified samples of the DUB assays were mixed with 0.5 mM 15N-ubiquitin and then with one part of 2% (v/v) TFA and one part of 2,5 DHAP matrix solution (7.6 mg of 2,5 DHAP in […] ethanol and […] of an aqueous 12 mg ml 1 diammonium hydrogen citrate). Then 250 nl of these solutions were spotted onto an MTP AnchorChip 1,536 TF and this is analysed on the Bruker rapifleX MALDI-TOF.
Table 22 presents the Dundee MALDI-TOF values expressed as % DUB activity remaining at a compound concentration of 1 μM.

[2] = biological target: recombinant USP30 (amino acids 57-517 of the human sequence) (Homo sapiens (Human), UniProt Q70CQ3); experiment: In vitro USP30 biochemical assay (Ubiquitin-Rhodamine)
Method: In vitro biochemical assay to establish the potency of compounds for USP30 inhibition: a 384-well plate assay using a fluorophore tagged substrate of USP30 was used for in vitro screening of compounds. Each compound was tested at 10 different concentrations (0.5 to 10,000 nM) in duplicate wells. Compounds were pre-incubated at 25° C. for 30 min in an assay buffer consisting of 20 mM Tris/HCl, pH8.0, 1 mM GSH, 0.01% Triton X-100, 0.03% BGG and 1.5 nM recombinant USP30 (amino acids 57-517 of the human sequence with a C-terminal 6-His tag). Following the pre-incubation, Ubiquitin-Rhodamine substrate dissolved in the assay buffer was added at the final concentration of 25 nM to each well and plates were incubated at 25° C. for an additional 75 minutes. The reaction was stopped by adding 10 mM citric acid and fluorescence was read using excitation wavelength 485 nm, emission of 535 nm. Data were analyzed using Graph Pad Prism software with a four-parameter (floating slope) fit to log concentration data to determine IC50s.

USP30 [3] = biological target: T1, USP30; experiment: Dundee MALDI-TOF mass spectrometry assay (IC50); type: biochemical; details: USP30 25 ng/μl, K48-linked diubiquitin 5.6 μM, avg, read-out: Dundee IC50 μM (avg in vitro MS assay)
Outline: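 USP30 (25 ng/μl) preincubated with compound 5 min at RT in Tris/BSA/DTT buffer, then K48-linked diubiquitin (5.6 μM) added for 45 min at RT. Stopped with 2% TFA; cleavage quantified by MALDI-TOF mass spectrometry to give IC50.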

[4] = read-out: USP30 IC50 μM (avg), Ubiquitin-Rhodamine substrate 25 nM, 1.5 nM recombinant USP30
[5] = USP30 IC50 μM (avg), Ubiquitin-Rhodamine substrate 25 nM, 1.5 nM recombinant USP30

Sequence of recombinant USP30 (amino acids 57-517 of the human sequence) (Q70CQ3 57-517): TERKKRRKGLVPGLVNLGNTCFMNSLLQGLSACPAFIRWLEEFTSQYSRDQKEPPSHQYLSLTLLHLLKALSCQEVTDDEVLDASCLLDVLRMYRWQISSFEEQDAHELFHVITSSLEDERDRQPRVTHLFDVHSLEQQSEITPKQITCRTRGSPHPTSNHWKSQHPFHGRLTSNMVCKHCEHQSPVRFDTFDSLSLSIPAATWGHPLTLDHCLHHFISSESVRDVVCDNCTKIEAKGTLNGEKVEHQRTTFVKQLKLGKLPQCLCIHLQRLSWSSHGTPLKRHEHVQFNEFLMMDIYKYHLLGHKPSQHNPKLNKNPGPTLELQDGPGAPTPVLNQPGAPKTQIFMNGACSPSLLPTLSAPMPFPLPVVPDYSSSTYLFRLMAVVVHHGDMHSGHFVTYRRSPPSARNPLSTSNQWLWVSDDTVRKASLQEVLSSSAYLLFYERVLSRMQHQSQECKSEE
T1 sequence (Q70CQ3 whole entry): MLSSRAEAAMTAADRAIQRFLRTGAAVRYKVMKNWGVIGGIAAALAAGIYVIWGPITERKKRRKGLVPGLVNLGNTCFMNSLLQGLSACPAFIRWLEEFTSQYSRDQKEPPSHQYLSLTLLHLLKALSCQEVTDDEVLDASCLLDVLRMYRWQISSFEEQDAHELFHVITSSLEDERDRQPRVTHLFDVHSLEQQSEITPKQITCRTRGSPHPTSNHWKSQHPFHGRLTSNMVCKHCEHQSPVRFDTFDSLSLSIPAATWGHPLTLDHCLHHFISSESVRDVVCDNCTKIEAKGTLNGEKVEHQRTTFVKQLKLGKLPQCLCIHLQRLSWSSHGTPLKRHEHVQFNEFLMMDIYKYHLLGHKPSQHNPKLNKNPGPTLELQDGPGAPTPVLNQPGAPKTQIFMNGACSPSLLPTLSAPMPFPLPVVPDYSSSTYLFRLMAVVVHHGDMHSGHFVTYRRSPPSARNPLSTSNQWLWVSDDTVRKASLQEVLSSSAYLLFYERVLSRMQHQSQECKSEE

| Compound | activity at 1 µM (USP30 [1]) | IC50 [2, 4] | IC50 [2, 5] | IC50 (USP30 [3]) |
| --- | --- | --- | --- | --- |
| CC(C)(C)NS(=O)(=O)c1ccc(N2C(=O)C(NC(=O)c3ccc(F)cc3)Cc3ccccc32)cc1 (centres unmarked) [Compound I-20, N-(1-(4-(N-tert-butylsulfamoyl)phenyl)-2-oxo-1,2,3,4-tetrahydroquinolin-3-yl)-4-fluorobenzamide] | > 75% | > 10 µM | – | – |
| CC(C)(C)NS(=O)(=O)c1ccc(N2Cc3ccccc3CC(NC(=O)c3ccc(F)cc3)C2=O)cc1 (centres unmarked) [Compound I-21, N-(2-(4-(N-tert-butylsulfamoyl)phenyl)-3-oxo-2,3,4,5-tetrahydro-1H-benzo[c]azepin-4-yl)-4-fluorobenzamide] | > 75% | > 10 µM | – | – |
| CC(C)(C)NS(=O)(=O)c1ccc(NC(=O)[C@H](Cc2ccccc2)NC(=O)OC2CCOCC2)cc1 [Compound I-43, (S)-tetrahydro-2H-pyran-4-yl 1-(4-(N-tert-butylsulfamoyl)phenylamino)-1-oxo-3-phenylpropan-2-ylcarbamate] | 50 to 75% | – | 1 to 10 µM | – |
| CCNS(=O)(=O)c1ccc(NC(=O)[C@H](Cc2ccccc2)N(CC)C(=O)c2ccc(F)cc2)cc1 [Compound I-52, (S)-N-ethyl-N-(1-(4-(N-ethylsulfamoyl)phenylamino)-1-oxo-3-phenylpropan-2-yl)-4-fluorobenzamide] | > 75% | > 10 µM | – | – |
| CC(C)(C)NS(=O)(=O)c1ccc(NC(=O)C2Cc3ccccc3N2C(=O)c2ccc(F)cc2)cc1 (centres unmarked) [Compound I-53, N-(4-(N-tert-butylsulfamoyl)phenyl)-1-(4-fluorobenzoyl)indoline-2-carboxamide] | > 75% | > 10 µM | – | – |
| CC(C)(C)NS(=O)(=O)c1ccc(NC(=O)C2Cc3cnccc3N2C(=O)c2ccc(F)cc2)cc1 (centres unmarked) [Compound I-55, N-(4-(N-tert-butylsulfamoyl)phenyl)-1-(4-fluorobenzoyl)-2,3-dihydro-1H-pyrrolo[3,2-c]pyridine-2-carboxamide] | > 75% | > 10 µM | – | – |
| CC(C)(C)NS(=O)(=O)c1ccc(NC(=O)C2Cc3cccnc3CN2C(=O)c2ccc(F)cc2)cc1 (centres unmarked) [Compound I-59, N-(4-(N-tert-butylsulfamoyl)phenyl)-7-(4-fluorobenzoyl)-5,6,7,8-tetrahydro-1,7-naphthyridine-6-carboxamide] | > 75% | – | 1 to 10 µM | – |
| O=C(N[C@@H](Cc1ccccc1)C(=O)Nc1ccc(S(=O)(=O)NCCO)cc1)c1ccc(F)cc1 [Compound I-138, (S)-4-fluoro-N-(1-(4-(N-(2-hydroxyethyl)sulfamoyl)phenylamino)-1-oxo-3-phenylpropan-2-yl)benzamide] | – | – | 0.05 to 1 µM | < 0.05 µM |
| CCNS(=O)(=O)c1ccc(NC(=O)[C@H](Cc2ccccn2)NC(=O)c2ccc(F)cc2)cc1 [Compound I-139, (S)-N-(1-(4-(N-ethylsulfamoyl)phenylamino)-1-oxo-3-(pyridin-2-yl)propan-2-yl)-4-fluorobenzamide] | – | – | 0.05 to 1 µM | 0.05 to 1 µM |
| O=C(N[C@@H](Cc1ccccn1)C(=O)Nc1ccc(S(=O)(=O)NC2COC2)cc1)c1ccc(F)cc1 [Compound I-140, (S)-4-fluoro-N-(1-(4-(N-oxetan-3-ylsulfamoyl)phenylamino)-1-oxo-3-(pyridin-2-yl)propan-2-yl)benzamide] | – | – | 0.05 to 1 µM | 0.05 to 1 µM |
| O=C(N[C@@H](Cc1ccccn1)C(=O)Nc1ccc(S(=O)(=O)NC23CC(C2)C3)cc1)c1ccc(F)cc1 [Compound I-141, (S)-N-(1-(4-(N-bicyclo[1.1.1]pentan-1-ylsulfamoyl)phenylamino)-1-oxo-3-(pyridin-2-yl)propan-2-yl)-4-fluorobenzamide] | – | – | 0.05 to 1 µM | 0.05 to 1 µM |
| O=C(N[C@@H](Cc1ccccn1)C(=O)Nc1ccc(S(=O)(=O)NC2CCC2)cc1)c1ccc(F)cc1 [Compound I-142, (S)-N-(1-(4-(N-cyclobutylsulfamoyl)phenylamino)-1-oxo-3-(pyridin-2-yl)propan-2-yl)-4-fluorobenzamide] | – | – | 0.05 to 1 µM | < 0.05 µM |
| COc1cc(S(=O)(=O)NC2COC2)ccc1NC(=O)[C@H](Cc1ccccc1)NC(=O)c1ccc(F)cc1 [Compound I-144, (S)-4-fluoro-N-(1-(2-methoxy-4-(N-oxetan-3-ylsulfamoyl)phenylamino)-1-oxo-3-phenylpropan-2-yl)benzamide] | – | – | 0.05 to 1 µM | 0.05 to 1 µM |
| CCNS(=O)(=O)c1ccc(NC(=O)[C@H](Cc2ccccc2)NC(=O)c2ccc(F)cc2)cc1OC [Compound I-146, (S)-N-(1-(4-(N-ethylsulfamoyl)-3-methoxyphenylamino)-1-oxo-3-phenylpropan-2-yl)-4-fluorobenzamide] | – | – | 0.05 to 1 µM | 0.05 to 1 µM |
| COc1cc(NC(=O)[C@H](Cc2ccccc2)NC(=O)c2ccc(F)cc2)ccc1S(=O)(=O)NC1COC1 [Compound I-147, (S)-4-fluoro-N-(1-(3-methoxy-4-(N-oxetan-3-ylsulfamoyl)phenylamino)-1-oxo-3-phenylpropan-2-yl)benzamide] | – | – | 0.05 to 1 µM | < 0.05 µM |
| COc1cc(NC(=O)[C@H](Cc2ccccc2)NC(=O)c2ccc(F)cc2)ccc1S(=O)(=O)NC12CC(C1)C2 [Compound I-148, (S)-N-(1-(4-(N-bicyclo[1.1.1]pentan-1-ylsulfamoyl)-3-methoxyphenylamino)-1-oxo-3-phenylpropan-2-yl)-4-fluorobenzamide] | – | – | 0.05 to 1 µM | < 0.05 µM |
| COCC(C)(C)NS(=O)(=O)c1ccc(NC(=O)[C@H](Cc2ccccc2)NC(=O)c2ccc(F)cc2)cc1OC [Compound I-149, (S)-4-fluoro-N-(1-(3-methoxy-4-(N-(1-methoxy-2-methylpropan-2-yl)sulfamoyl)phenylamino)-1-oxo-3-phenylpropan-2-yl)benzamide] | – | – | 0.05 to 1 µM | < 0.05 µM |
| COc1cc(NC(=O)[C@H](Cc2ccccc2)NC(=O)c2ccc(F)cc2)ccc1S(=O)(=O)NC1CCOCC1 [Compound I-150, (S)-4-fluoro-N-(1-(3-methoxy-4-(N-(tetrahydro-2H-pyran-4-yl)sulfamoyl)phenylamino)-1-oxo-3-phenylpropan-2-yl)benzamide] | – | – | 0.05 to 1 µM | < 0.05 µM |
| COCCNS(=O)(=O)c1ccc(NC(=O)[C@H](Cc2ccccc2)NC(=O)c2ccc(F)cc2)cc1OC [Compound I-151, (S)-4-fluoro-N-(1-(3-methoxy-4-(N-(2-methoxyethyl)sulfamoyl)phenylamino)-1-oxo-3-phenylpropan-2-yl)benzamide] | – | – | 0.05 to 1 µM | < 0.05 µM |
| COc1cc(NC(=O)[C@H](Cc2ccccc2)NC(=O)c2ccc(F)cc2)ccc1S(=O)(=O)NCCO [Compound I-152, (S)-4-fluoro-N-(1-(4-(N-(2-hydroxyethyl)sulfamoyl)-3-methoxyphenylamino)-1-oxo-3-phenylpropan-2-yl)benzamide] | – | – | 0.05 to 1 µM | < 0.05 µM |
| CCNS(=O)(=O)c1ccc(NC(=O)[C@H](Cc2ccccc2)NC(=O)c2ccc(F)cc2)cc1F [Compound I-155, (S)-N-(1-(4-(N-ethylsulfamoyl)-3-fluorophenylamino)-1-oxo-3-phenylpropan-2-yl)-4-fluorobenzamide] | – | – | 0.05 to 1 µM | < 0.05 µM |
| CC(C)(C)NS(=O)(=O)c1ccc(NC(=O)[C@H](Cc2ccccc2)NC(=O)c2ccc(F)cc2)cc1F [Compound I-156, (S)-N-(1-(4-(N-tert-butylsulfamoyl)-3-fluorophenylamino)-1-oxo-3-phenylpropan-2-yl)-4-fluorobenzamide] | – | < 0.05 µM | – | < 0.05 µM |
| CCNS(=O)(=O)c1ccc(NC(=O)[C@H](Cc2ccccc2)NC(=O)c2ccc(F)cc2)c(F)c1 [Compound I-157, (S)-N-(1-(4-(N-ethylsulfamoyl)-2-fluorophenylamino)-1-oxo-3-phenylpropan-2-yl)-4-fluorobenzamide] | – | – | 0.05 to 1 µM | 0.05 to 1 µM |
| CC(C)(C)NS(=O)(=O)c1ccc(NC(=O)[C@H](Cc2ccccc2)NC(=O)c2ccc(F)cc2)c(F)c1 [Compound I-158, (S)-N-(1-(4-(N-tert-butylsulfamoyl)-2-fluorophenylamino)-1-oxo-3-phenylpropan-2-yl)-4-fluorobenzamide] | – | < 0.05 µM | – | < 0.05 µM |
| CC(C)(CN1CCOCC1)NS(=O)(=O)c1ccc(NC(=O)[C@H](Cc2ccccc2)NC(=O)c2ccc(F)cc2)cc1 [Compound I-162, (S)-4-fluoro-N-(1-(4-(N-(2-methyl-1-morpholinopropan-2-yl)sulfamoyl)phenylamino)-1-oxo-3-phenylpropan-2-yl)benzamide] | – | < 0.05 µM | – | < 0.05 µM |
